Laboratory results taken from US8507488B2, “Fused nitrogen containing heterocycles and compositions thereof as kinase inhibitors” (IRM LLC, priority 2008, dated 2013).
Like-named read-outs stand apart in the source and are kept apart here.

Tests used:
Tel-TrkB = biological target: T1, Tel-TrkB (Homo sapiens, UniProt Q16620); assay: Inhibition of proliferation of Ba/F3 cells expressing Tel-TrkB (BaF3/Tel-TrkB); format: cell-based
T1 construct: dimerization domain of Tel (ETV6) transcription factor (fusion partner, human ETV6 P41212); expressed in transfected cells; host or cells: luciferase expressing Ba/F3 murine hematopoietic progenitor cells; the other entry of the earlier key: ETV6 (P41212, Transcription factor ETV6)
T1 sequence (Q16620 538-822 limits assumed): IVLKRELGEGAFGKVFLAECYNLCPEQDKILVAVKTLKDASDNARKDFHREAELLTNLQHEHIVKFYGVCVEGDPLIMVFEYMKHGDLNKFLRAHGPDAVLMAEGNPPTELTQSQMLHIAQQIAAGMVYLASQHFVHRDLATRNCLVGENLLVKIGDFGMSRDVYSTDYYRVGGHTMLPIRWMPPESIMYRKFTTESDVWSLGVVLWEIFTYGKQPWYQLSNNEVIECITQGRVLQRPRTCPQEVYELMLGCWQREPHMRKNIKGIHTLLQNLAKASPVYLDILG
How it was run: (§1)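 Luciferase-expressing murine Ba/F3 cells transformed with human Tel-TrkA or Tel-TrkB, plated at 2000 cells/well in IL3-free RPMI/10% FBS. Exposed to 12 concentrations of 3-fold serially diluted compound for 48 hours at 37° C, 5% CO2. Bright Glo luminescence read-out, with IC50 from linear regression of percent inhibition.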

parental BaF3 cells = assay: Proliferation of parental (untransformed) Ba/F3 cells maintained with IL3; format: cell-based, murine; conditions: Mus musculus
How it was run: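 Untransformed murine Ba/F3 cells kept in RPMI/10% FCS with 5 ng/ml murine IL3, plated at 2000 cells/well and exposed to 12 concentrations of compound for 48 h at 37 °C. Viability read by Bright-Glo luciferase luminescence; IC50 from linear regression of % inhibition.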

Tel-TrkA [1] = biological target: T2, Tel-TrkA (Homo sapiens, UniProt P04629); assay: Inhibition of proliferation of Ba/F3 cells expressing Tel-TrkA (BaF3/Tel-TrkA, luciferase/Bright Glo readout); format: cell-based; conditions: read-out: IC50 in BaF3/Tel-TrkA CTG cellular assay
T2 construct: dimerization domain of Tel (ETV6) transcription factor (fusion partner, human ETV6 P41212); expressed in transfected cells; host or cells: luciferase expressing Ba/F3 murine hematopoietic progenitor cells; the other entry of the earlier key: ETV6 (P41212, Transcription factor ETV6)
T2 sequence (P04629 510-796 limits assumed): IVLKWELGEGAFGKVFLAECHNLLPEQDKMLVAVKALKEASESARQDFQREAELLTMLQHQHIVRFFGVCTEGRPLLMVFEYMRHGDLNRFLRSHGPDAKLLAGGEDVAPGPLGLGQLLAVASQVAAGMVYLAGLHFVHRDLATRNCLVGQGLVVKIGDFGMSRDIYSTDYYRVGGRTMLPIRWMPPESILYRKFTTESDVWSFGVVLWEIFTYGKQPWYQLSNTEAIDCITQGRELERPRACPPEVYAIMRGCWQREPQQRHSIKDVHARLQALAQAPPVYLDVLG

[2] = biological target: T3, full length rTrkA and mNGF (Rattus norvegicus, UniProt P35739); assay: Inhibition of proliferation of Ba/F3 cells co-expressing full length rTrkA and mNGF (BaF3/TrkA-NFG); format: cell-based; conditions: for IC50 in BaF3/TrkA-NFG CTG cellular assay: BaF3/TrkA-NFG cells; for BaF3 TRKA-NGF CTG IC 50: BaF3 TRKA-NGF cells, CTG readout
T3 construct: co-expressing full length rTrkA and mNGF; expressed in transfected cells; host or cells: Ba/F3 cells
T3 sequence (P35739 33-799): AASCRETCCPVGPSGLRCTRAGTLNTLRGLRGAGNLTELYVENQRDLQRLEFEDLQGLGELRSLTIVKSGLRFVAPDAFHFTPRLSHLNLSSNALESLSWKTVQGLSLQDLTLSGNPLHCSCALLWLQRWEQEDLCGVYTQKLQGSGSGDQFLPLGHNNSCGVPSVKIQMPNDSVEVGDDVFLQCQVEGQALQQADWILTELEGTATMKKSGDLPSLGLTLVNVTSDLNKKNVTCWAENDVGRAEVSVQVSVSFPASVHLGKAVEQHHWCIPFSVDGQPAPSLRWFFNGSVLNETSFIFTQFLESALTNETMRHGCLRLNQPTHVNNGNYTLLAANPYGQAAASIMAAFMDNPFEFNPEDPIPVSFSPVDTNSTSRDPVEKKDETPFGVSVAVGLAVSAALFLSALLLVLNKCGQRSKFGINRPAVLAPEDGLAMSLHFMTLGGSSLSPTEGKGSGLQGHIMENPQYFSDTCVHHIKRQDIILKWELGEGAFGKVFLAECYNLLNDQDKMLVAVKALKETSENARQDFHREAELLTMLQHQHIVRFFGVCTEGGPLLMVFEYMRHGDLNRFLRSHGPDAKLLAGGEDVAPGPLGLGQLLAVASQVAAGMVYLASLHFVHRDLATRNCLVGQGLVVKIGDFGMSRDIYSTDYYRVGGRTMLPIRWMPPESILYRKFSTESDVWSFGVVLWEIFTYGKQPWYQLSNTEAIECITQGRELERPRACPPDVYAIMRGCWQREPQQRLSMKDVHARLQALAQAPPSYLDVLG
T3 sequence (P01139 122-241 partner): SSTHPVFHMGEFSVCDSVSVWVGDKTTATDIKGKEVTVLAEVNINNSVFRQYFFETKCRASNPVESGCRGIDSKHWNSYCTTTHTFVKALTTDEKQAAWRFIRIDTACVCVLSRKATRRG

Tel-TrkA [3] = biological target: T2, Tel-TrkA; assay: Inhibition of proliferation of Ba/F3 cells expressing Tel-TrkA (BaF3/Tel-TrkA, luciferase/Bright Glo readout); format: cell-based; conditions: read-out: Ba/F3 Tel-TrkA IC 50
How it was run: as §1

KM12 luc = KM12 luc cell proliferation assay (Table 8); format: cell-based; conditions: KM12 luc cells; read-out: KM12 luc IC 50
Tel-TrkC = biological target: T4, Tel-TrkC (Homo sapiens, UniProt Q16288); assay: Inhibition of proliferation of Ba/F3 cells expressing Tel-TrkC (BaF3/Tel-TrkC); format: cell-based; conditions: read-out: Ba/F3 Tel-TrkC IC 50
T4 construct: The cells also express luciferase as the viability read-out; it is not fused to the kinase; P41212 (Transcription factor ETV6)
T4 sequence (Q16288 whole entry, the tested form may be a part): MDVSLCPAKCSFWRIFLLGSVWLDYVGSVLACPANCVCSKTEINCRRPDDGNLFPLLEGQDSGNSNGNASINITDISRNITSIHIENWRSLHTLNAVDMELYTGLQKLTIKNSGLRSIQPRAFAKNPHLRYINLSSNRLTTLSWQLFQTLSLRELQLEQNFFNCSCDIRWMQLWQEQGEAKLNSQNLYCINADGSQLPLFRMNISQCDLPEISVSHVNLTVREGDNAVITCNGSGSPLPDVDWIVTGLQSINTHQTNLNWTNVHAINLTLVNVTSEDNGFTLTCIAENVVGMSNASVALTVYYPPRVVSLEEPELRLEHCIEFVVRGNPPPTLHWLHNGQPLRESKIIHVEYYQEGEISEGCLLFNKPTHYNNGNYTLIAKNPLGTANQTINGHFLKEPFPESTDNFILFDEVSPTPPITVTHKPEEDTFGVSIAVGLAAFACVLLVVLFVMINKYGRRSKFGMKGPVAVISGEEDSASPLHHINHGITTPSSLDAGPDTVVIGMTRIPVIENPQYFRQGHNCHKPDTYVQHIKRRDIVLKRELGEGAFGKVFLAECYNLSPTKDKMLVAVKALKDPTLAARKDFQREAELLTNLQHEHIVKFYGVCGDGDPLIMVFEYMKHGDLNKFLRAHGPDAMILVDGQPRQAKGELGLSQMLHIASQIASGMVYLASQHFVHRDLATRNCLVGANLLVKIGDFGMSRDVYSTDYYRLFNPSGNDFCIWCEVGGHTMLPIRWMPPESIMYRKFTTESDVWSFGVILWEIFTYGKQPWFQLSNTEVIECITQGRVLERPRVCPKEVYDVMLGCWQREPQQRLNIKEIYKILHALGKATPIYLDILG
Description: Test compounds were dissolved in DMSO (10 mM) and transferred into 1.4 mL flat bottom or V-shaped Matrix tubes carrying a unique 2D matrix chip by individual compound hubs. The numbers of these chips were distinctively linked to the individual compound identification numbers. The stock solutions were stored at −20° C. if not used immediately. For the test procedure the vials were defrosted and identified by a scanner whereby a working sheet is generated that guides the subsequent working steps.
Compound dilutions were made in 384 well plates. This format enabled the assay of maximally 28 individual test compounds at 12 concentrations (single points) including 2 reference compounds. The dilution protocol included the production of pre-dilution plates, master plates and assay plates: • Compound plates: 30 μL of individual compound (10 mM) DMSO solution including standard compound were transferred into columns 1 and 13 of a 384 well plate. 20 μL of DMSO were added to the rest of the wells and the compounds were serially diluted (1:3) by transferring 10 μL from a well in column 1 or 13 to the next well in column 2 or 14 respectively and successively with the help of a Minitrack robot. • Assay plates: Identical assay plates were then prepared by adding […] each of compound dilutions of the compound plates into 384-well “assay plates”. In the following the compounds were mixed with 50 μL of assays components (cells or enzyme) and tested for their inhibitory activity.
Compounds of Formula (I) were tested for their antiproliferative effect on Ba/F3 cells expressing either Tel-TrkA, Tel-TrkB or Tel-TrkC and an additional panel of 34 selected diverse kinases activated by fusion to the dimerizing partners Bcr or Tel (Abl, A1K, BMX, EphA3, EphB2, FGFR2, FGFR3, FGFR4, FGR, FLT1, FLT3, FLT4, FMS, IGF1R, InsR, JAK1, JAK2, JAK3, KDR, Kit, Lck, Lyn, MER, MET, PDGFRb, RET, RON, Ros-1, Src, Aurora, TIE2, TYK2, Tie1, ZAP70). The antiproliferative effect of these compounds on the different cell lines and on the non transformed cells were tested at 12 different concentrations of 3-fold serially diluted compounds in 384 well plates as described above (in media lacking IL3). The IC50 values of the compounds the different cell lines were determined from dose response curves.
The cell line used is the luciferase expressing Ba/F3 murine hematopoietic progenitor cell line transformed with human Tel-TrkA, Tel-TrkB or Tel-TrkC cDNAs (Ba/F3 EN A/B/C). These cells maintained in RPMI/10% fetal bovine serum (RPMI/FCS) supplemented with penicillin 50 mg/mL, streptomycin 50 mg/mL and L-glutamine […]. Untransformed Ba/F3 cells were similarly maintained with the addition 5 ng/ml of murine recombinant IL3. 50 μl of a Ba/F3 or Ba/F3 EN A/B/C cell suspension were plated in Greiner 384 well microplates (white)) at a density of 2000 cells per well. 50 nl of serially diluted test compound (10-0.0001 mM in DMSO solution) is added to each well. The cells were incubated for 48 hours at 37° C., 5% CO2. 25 μl of Bright Glo® (Promega) luciferase substrate is added to each well. The emited luminiscence is quantified using the ACQUEST™ luminescence system (Molecular Devices). IC50 values were calculated by linear regression analysis of the percentage inhibition of each compound at 12 concentrations.

[4] = BaF3/Tel-TrkB cells, read-out: IC50 in BaF3/Tel-TrkB CTG cellular assay
[5] = BaF3, parental BaF3 cells, read-out: IC50 in BaF3 CTG cellular assay
[6] = Ba/F3 Tel-TrkB cells, read-out: Ba/F3 Tel-TrkB IC 50
[7] = BaF3, parental Ba/F3 cells, read-out: Ba/F3 IC 50

IC50 (Tel-TrkB; [4])	IC50 (Tel-TrkA [1])	IC50 in BaF3/TrkA-NFG CTG cellular assay [2]	IC50 (Tel-TrkB; [6])	IC50 (Tel-TrkA [3])	BaF3 TRKA-NGF CTG IC 50 [2]	IC50 (Tel-TrkC)	Structure (SMILES)	IC50 (parental BaF3 cells; [5])	IC50 (KM12 luc)	IC50 (parental BaF3 cells; [7])
12 nM	5.2 nM	13 nM					OC1CCN(c2cc(-c3cccc(-c4cnc5ccc(N6CCC[C@@H]6c6cccc(F)c6)nn45)n3)ccn2)CC1 [Compound 16-4, (R)-1-(6-(6-(2-(3-fluorophenyl)pyrrolidin-1-yl)imidazo[1,2-b]pyridazin-3-yl)-2,4′-bipyridin-2′-yl)piperidin-4-ol]	4410 nM		
			4170 nM	5670 nM	3580 nM	2610 nM	N#Cc1cccc(-n2cnc3ccc(N4C(=O)CSC4c4cc(F)ccc4F)nc32)c1 (centres unmarked) [Table 1-Compound 5]		2290 nM	> 10000 nM
			150 nM	210 nM	680 nM	69 nM	N#Cc1cccc(-n2cnc3ccc(N4CCCC4c4cccc(F)c4)nc32)c1 (centres unmarked) [Table 1-Compound 1]		230 nM	16000 nM
			22 nM	28 nM	450 nM	18 nM	N#Cc1cccc(-n2cnc3ccc(N4CCSC4c4cc(F)ccc4F)nc32)c1 (centres unmarked) [Table 1-Compound 3]		37 nM	> 10000 nM
			56 nM	87 nM	74 nM	17 nM	Fc1cccc(C2CCCN2c2ccc3ncc(-c4cncc(-n5ccnc5)n4)n3n2)c1 (centres unmarked) [Table 3-Compound 11]		36 nM	> 10000 nM
			49 nM	44 nM	108 nM	14 nM	Fc1cccc(C2CCCCN2c2ccc3ncc(-c4ccc(N5CCOCC5)nc4)n3n2)c1 (centres unmarked) [Table 3-Compound 58]		34 nM	7650 nM
			17 nM	9 nM	9 nM	3 nM	Fc1cccc([C@H]2CCCN2c2ccc3ncc(-c4cccc(N5CCN(c6cccnc6)CC5)n4)n3n2)c1 [Table 7-Compound 255]		6 nM	> 11000 nM
			7.7 nM	12 nM	22 nM	4 nM	C[C@H]1CN(c2ccc3ncc(-c4cccc(C#N)c4)n3n2)[C@H](c2ccccc2)C1(F)F [Table 3-Compound 52]		6.5 nM	> 10000 nM
			10 nM	13 nM	20 nM	1.4 nM	Fc1cccc(C2CCCN2c2ccc3ncc(-c4ccc5[nH]ccc5c4)n3n2)c1 (centres unmarked) [Table 3-Compound 18]		24 nM	7230 nM
			41 nM	86 nM	111 nM	17 nM	N#Cc1cccc(-c2cnc3ccc(N4CCCC4c4ccccc4)nn23)c1 (centres unmarked) [Table 3-Compound 54]		94 nM	> 10000 nM
			52 nM	35 nM	27 nM	20 nM	CN1CCN(c2cnc(-c3cnc4ccc(N5CCCC5c5cccc(F)c5)nn34)cn2)CC1 (centres unmarked) [Table 3-Compound 7]		23 nM	5030 nM
			15 nM	26 nM	49 nM	8.4 nM	N#Cc1cc(-c2cnc3ccc(N4CCCC4c4cc(F)ccc4F)nn23)ccc1N1CCOCC1 (centres unmarked) [Table 5-Compound 2]		29 nM	6170 nM
			129 nM	298 nM	720 nM	33 nM	CC1(c2cccc(F)c2)CCCN1c1ccc2ncc(-c3ccc(C#N)cc3)n2n1 (centres unmarked) [Table 3-Compound 91]		84 nM	8410 nM
			470 nM	2310 nM	1730 nM	240 nM	Cc1ccc(C)c(C2CCCN2c2ccc3ncc(-c4cccc(C(=O)O)n4)n3n2)c1 (centres unmarked) [Table 3-Compound 1]		190 nM	> 10000 nM
3.3 nM	2.2 nM	4.2 nM					O[C@@H]1CCN(c2nccc(-c3cccc(-c4cnc5ccc(N6CCC[C@@H]6c6cccc(F)c6)nn45)n3)n2)C1 [Compound 14-4, (R)-1-(4-(6-(6-((R)-2-(3-fluorophenyl)pyrrolidin-1-yl)imidazo[1,2-b]pyridazin-3-yl)pyridin-2-yl)pyrimidin-2-yl)pyrrolidin-3-ol]	4070 nM		
